What was measured:
protoscolex (PSCs) [1] = test: Protoscolex microstructure by optical microscope and SEM; assay type: cell-based, E. multilocularis; settings: 5 days after treatment, 10 μg/mL
Text: (§1) Protoscoleces (PSCs) from E. multilocularis were collected aseptically from alveolar echinococcosis obtained from the abdominal cavity of gerbils in Qinghai Research Key Laboratory for Echinococcosis, China. The specific operation steps were as follows: (1) dissect the successfully preserved Echinococcus protoscoleces gerbil model, isolate cysts and wash the residual liver tissue and blood with sterile Penicillin-Streptomycin solution (penicillin (1500 U/ mL) + streptomycin (1000 U/ mL)). (2) Place the clean cysts in sterile glassware, cut them into a slurry, filter the original head section with sterile gauze, and rinse them with Penicillin-Streptomycin solution 3 times. (3) Slightly rotate and shake the filtrate, absorb the suspended connective tissue, impurities, inactivated PSCs, and excess Penicillin-Streptomycin solution in the upper layer, repeat several times and finally concentrate the pure PSCs into the test tube. Viability was assessed by muscular movement (evaluated under an optical microscope), the motility of flame cells, and the exclusion test with methylene blue. The PSCs were incubated in an RPMI 1640 medium containing 0.20 mg/mL liver homogenous serous, 100 U/mL penicillin, 100 μg/mL streptomycin and 10% calf serum at 37°C in a 5% CO2 atmosphere at a concentration of (1000–2000) PSCs/mL.
(§2) The PSCs were divided into blank control groups (Groups 1 and 2), positive control groups (Groups 3 and 4), and experimental groups (Groups 5 to 7). Group 1 was RPMI-1640 medium with 0.20 mg/mL liver homogenate; Group 2 was 0.2% DMSO medium with 0.2% DMSO; Group 3 was RPMI-1640 medium with 0.20 mg/mL liver homogenate and 0.2% DMSO, containing 10 μg/mL Albendazole; Group 4 was RPMI-1640 medium with 0.20 mg/mL liver homogenate and 0.2% DMSO, containing 10 μg/mL albendazole sulfoxide; Groups 5–7 were RPMI-1640 medium with 0.20 mg/mL liver homogenate and 0.2% DMSO, containing 13.45, 26.9 and 53.8 μg/mL ABZ-BA, with effective ABZ concentrations of 5, 10 and 20 μg/mL, respectively. The culture medium and drug were changed every 3 days for one week. PSCs samples (10 μL) were collected every day and stained with 0.4% trypan blue staining solution, observed under an inverted microscope, and photographed to record PSC mortality.
For ultrastructural studies, 200 μL PSCs were taken from each group 5 days after treatment and fixed with 4% glutaraldehyde in sodium cacodylate buffer at 4°C for 72 hours. Samples were dehydrated by continuous incubation in increasing concentrations of ethanol (50–100%), and ethanol was removed by supercritical extraction. They were then sputter-coated with gold (100 Å thick) and examined on an FEI Quanta 200 scanning electron microscope operating at 20 kV.

protoscolex (PSCs) [2] = test: Detection of protoscolex mortality / survival rate in vitro (trypan blue); assay type: cell-based, E. multilocularis; settings: 7 days; ABZ 10 μg/mL, ABZ-SO 10 μg/mL, ABZ-BA 13.45, 26.9, 53.8 μg/mL; liver homogenate + 0.2% DMSO; n = 3
Text: as §1, §2

[3] = Systemic pharmacokinetics in SD rats (UHPLC-MS); assay type: in vivo, Sprague-Dawley (SD) rats; settings: SD rats, oral 25 mg/kg
Method: A Dionex Ultimate 3000 RSLC system (Thermofisher) combined with an Accucore aQ C18 column (150 mm×2.1 mm, 2.6 μm, Thermo fisher) was used in the sample separation process. The separation speed was set at […] for all gradients. 1 μL of injection volume and a constant temperature of (25 ± 1°C were set for the column. The eluents were A, water with 0.1% formic acid (v/v) and B, methanol; the gradient program was as follows: 0–6 min, 8–40% B; 6–8 min, 40–100% B; 8–10 min, 100% B; 10–11 min, 100–8% B; 11–13 min, 8% B.
Heated electro-spray ionization (HE-SI) was paired with a Q-Orbitrap MS in the MS analysis. The flow rate of auxiliary, sheath and sweep gas was set at 35, 10, and 1 (arbitrary unit), respectively. A full MS-ddMS^2 mode was used to perform the analysis. The damping gas in the C-trap and nitrogen was used to stabilize the spraying. Temperatures of 350°C and 320°C were set and kept for the auxiliary gas heater and capillary. Under negative mode, 3.0 kV was adopted for the spray voltage, 60 V was used for the S-lens RF level, 50 ms was used for the maximum injection time, and 3.0 ^e6 was set as the automatic gain control target. Full MS-ddMS^2 scan ranged from 150.0000 to 800.0000 m/z. Precise molecular weight […] was used for qualitative analysis, the corresponding peak area was used for quantitative analysis, and MS^2 fragments were used for further qualitative analysis.
A cross-over design was employed with male SD rats (n = 7) to evaluate in vivo pharmacokinetics. The rats were subjected to fasting for one night before each administration and were fed 4 hours after administration. ABZ was administered by gavage (25 mg/kg). Blood was collected under isoflurane anesthesia at a flow rate of 2.0 mL/min. At 0.25, 0.5, 1, 2, 2.5, 3, 4, 6, 8, 12, and 24 hours after administration, 200–500 μL blood was collected from the orbital venous plexus and centrifuged at 13000 rpm for 5 min. The upper plasma was stored at—80°C for testing.
Plasma samples were thawed at room temperature, and 100 μL was added to an equal volume of mass spectrometry grade methanol, vortexed for 1 min, and centrifuged again at 13000 rpm for 5 min. 100 μL of the supernatant were added to 100 μL of 200 ng/mL mebendazole IS solution, vortexed for 1 min, and centrifuged again at 13000 rpm for 5 min. The resulting sample was injected by UHPLC-HR-ESI-MS with an injection volume of 1 μL. The pharmacokinetic study of SD rats was performed according to the standards recommended by the "Guidelines for the Care and Use of Laboratory Animals" (Animal Laboratory Resources Institute, 1995) and was approved by the Institutional Animal Care and Use Committee of Qinghai University.

| Compound | PSC morphology under the SEM (protoscolex (PSCs) [1]) | PSC morphology under the optical microscope (OM) (protoscolex (PSCs) [1]) | mortality of PSCs (protoscolex (PSCs) [1]; vs blank groups) | inhibitory effect on PSC survival rate (protoscolex (PSCs) [2]) | detection in plasma 24 hours after administration [3] | shape of the drug time curve [3] | Frel (relative bioavailability) = AUCAbz(0–24)/AUCABZ (0–24) ([3]; n = 7) [%] |
| --- | --- | --- | --- | --- | --- | --- | --- |
| CCC[S+]([O-])c1ccc2[nH]c(NC(=O)OC)nc2c1 (stereo not shown) [ABZ-SO, albendazole sulfoxide] | elongated and curled up | became vacuolar and transparent | significantly higher than in the blank groups | time and concentration-dependent inhibitory effects | – | – | – |
| CCCSc1ccc2[nH]c(NC(=O)OC)nc2c1 [Abz] | – | – | – | – | still detected | double-peak | 2613 |

From PMC9838834, “Improvement of Antialveolar echinococcosis efficacy of novel Albendazole-Bile acids Derivatives with Enhanced Oral Bioavailability” (PLOS Neglected Tropical Diseases, 2023)
